Assay results from US5709901A (priority 1994, dated 1998).
Entries after “also recorded” stand apart in the source; their conditions may differ. Square brackets hold non-standard residues; d marks the D form. Peptide text beside a SMILES is read from it. * marks the point of attachment. Sta = CC(C)C[C@H](N)[C@@H](O)CC(=O)O; Isovaleryl = CC(C)CC(=O)*

Assays:
PF-2 = type: biochemical, Bacillus sp. KSM-PF2; details: for residual activity of PF-2 relative to control as 100: pH 7
PF-1 = type: biochemical, Bacillus sp. KSM-PF1; details: for residual activity of PF-1 relative to control as 100: pH 7
[1] = Meat tenderization test of conventional proteases (background); details: for time to overtenderize the meat: 0.1 based on the weight of the meat
From the text: As a meat tenderizer there has been heretofore used a protease. One of the most frequently used meat tenderizers is papain derived from papaya. However, papain is disadvantageous in that it is hard to control in tenderization (i.e., control over the progress of tenderization to a proper level) and its use is restricted by the added amount thereof and the processing time. In fact, papain was subjected to meat tenderization test. As a result, even when used in an amount as extremely small as 0.1 based on the weight of the meat to be tested, this enzyme overtenderized the meat within 1 hour at room temperature and in a period of time as short as 24 hours at a temperature as low as 4° C. The meat thus overtenderized was too unsavory to be served. This is because proteases derived from plants have a low substrate specificity.
On the other hand, a method has been proposed which comprises the specific decomposition of a connective tissue in a meat with elastase, which has a high substrate specificity, to tenderize the meat (JP-A-4-197156 (The term "JP-A" as used herein means an "unexamined published Japanese patent application"), JP-A-5-276899). However, this approach is disadvantageous in that elastase is hard to produce and must be used in a relatively large amount and requires a prolonged processing time to exert desired effects as compared with the foregoing proteases. It has also been point out that elastase cannot tenderize a meat sufficiently even if the added amount thereof and the processing time are increased (JP-A-6-169729).

[2] = Meat tenderization test, 15-mm thick round (Example 4, FIG. 2); details: 15-mm thick meat, 20° C., per 10 g: PF-1 100 U, papain 10 U or 1 U, elastase 250 U; for tenderizing effect (in words): PF-2 45 U
Description: The same meat as used in Example 3 was sliced perpendicular to muscular fibers to 15-mm thick pieces by a meat slicer. A maximum homogeneous portion of the sliced meat was molded into an about 30 g rod. The molded meat was uniformly sprinkled with the enzyme powder, covered with a wrap, and then allowed to stand at room temperature (20° C.) for a predetermined period of time. The meat thus processed was then grilled over a 200° C. hot plate for 3 minutes on each side. The meat thus grilled was cut into 2-cm wide strips which were then measured for shear force value in the same manner as in Example 3. As comparative enzymes, the same papain powder (available from Amano Co., Ltd.) and elastase powder (reagent available from Sigma Co., Ltd.) as used in Example 3 were subjected to the same meat tenderization test as mentioned above.

[3] = Meat tenderization test, 5-mm thick round (Example 3, FIG. 1); details: for tenderizing effect (in words) / time in which the tenderizing effect is exerted: 5-mm thick meat, 20° C., per 10 g: PF-1 100 U, papain 10 U or 1 U, elastase 250 U; for tenderizing effect (in words): PF-2 45 U; for time to overtenderizing effect: 5 mm or 15 mm
Description: The metalloprotease of the present invention preferably tenderizes round in such a manner that the shear force value of the round thus tenderized is from 20% to 70% (preferably from 25% to 65%, particularly from 30% to 50% of that of the untenderized round (round which has not been processed with the metalloprotease of the present invention) when the round has a thickness of 5 mm. The shear force value as defined herein is determined by subjecting the meat sample to cutting by a meat shear (Warner Bratzler Type 3000, available from Warner Bratzler Corp.). The meat sample is obtained by subjecting round to enzymatic processing at a temperature of 20° C., and then grilled-the round thus processed on both sides thereof at 200° C. (grilled on one side for 1 minute and one the other side for 45 seconds).
As the meat to be tested there was used a low grade round (100 g) imported from Australia. The meat was sliced to 5-mm thick pieces by a meat slicer. Prominent strings were removed. About 20 g of the sliced meat was then molded. The molded meat was uniformly sprinkled with the enzyme powder, covered with a wrap, and then allowed to stand at room temperature (20° C.) for a predetermined period of time. The meat thus processed was then grilled over a 200° C. hot plate for 1 minute on one side and for 45 seconds on the other side. The meat thus grilled was then cut into 3-cm wide strips. The strips were then measured for shear force value (SFV) by means of a meat shear (Warner Bratzler Type 3000, available from Warner Bratzler Corp.). As comparative enzymes, a papain powder (available from Amano Co., Ltd.) and an elastase powder (reagent available from Sigma Co., Ltd.) were subjected to the same meat tenderization test as mentioned above.

| Molecule | residual activity of PF-2 relative to control as 100 (PF-2) | residual activity of PF-1 relative to control as 100 (PF-1) | inhibition of PF-2 activity (in words) (PF-2) | inhibition of PF-1 activity (in words) (PF-1) | other results |
| --- | --- | --- | --- | --- | --- |
| [Cl-].[Cl-].[Mg+2] [MgCl2] | 74% | 107% |  |  |  |
| O[C@H](CS)[C@H](O)CS (racemic) [DTT, dithiothreitol] | 81% | 70% | not inhibited | not inhibited |  |
| [Cl-].[Cl-].[Co+2] [CoCl2] | 78% | 103% |  |  |  |
| O=S(=O)(F)Cc1ccccc1 [PNSF, phenylmethanesulfonylfluoride] | 80% | 124% | not inhibited | not inhibited |  |
| [Cl][Mn][Cl] [MnCl2] | 62% | 103% |  |  |  |
| [Cl-].[Cl-].[Zn+2] [ZnCl2] | 58% | 88% |  |  |  |
| [Cl][Cu][Cl] [CuCl2] | 20% | 37% |  |  |  |
| O=C(O)CN(CCN(CC(=O)O)CC(=O)O)CC(=O)O [EDTA, ethylenediaminetetraacetic acid] | 30% | 45% | inhibited | inhibited |  |
| [Ca+2].[Cl-].[Cl-] [CaCl2] | 76% | 104% |  |  |  |
| [Cl][Fe][Cl] [FeCl2] | 28% |  |  |  |  |
| [Cl][Hg][Cl] [HgCl2] | 62% | 40% |  |  |  |
| elastase |  |  |  |  | tenderizing effect (in words) ([1]; reagent grade elastase): slightly tenderized; also recorded: the tenderness thus obtained was insufficient; tenderizing effect (in words) ([2]; listed as elastase powder): some tenderizing effect; also recorded: a proper tenderness cannot be obtained; time in which the tenderizing effect is exerted [2]: 24 h; tenderizing effect (in words) ([3]; listed as elastase powder): some tenderizing effect; also recorded: a proper tenderness cannot be obtained; time in which the tenderizing effect is exerted [3]: 24 h; tenderizing effect, summary of Examples 3 and 4 (in words) ([3]; meat thickness either 5 mm or 15 mm, up to 24 hours): cannot exert an effect of properly tenderizing the meat |
| O=C(O)CI [Monoiodoacetic acid, monoiodoacetic acid] | 100% | 105% | not inhibited | not inhibited |  |
| [Cl][Ni][Cl] [NiCl2] | 28% | 92% |  |  |  |
| [Cl][Fe]([Cl])[Cl] [FeCl3] | 9% | 98% |  |  |  |
| CC(C)CC(=O)N[C@H](C(=O)N[C@H](C(=O)N[C@@H](CC(C)C)[C@@H](O)CC(=O)N[C@@H](C)C(=O)N[C@@H](CC(C)C)[C@@H](O)CC(=O)O)C(C)C)C(C)C [Pepstatin, pepstatin] (Isovaleryl-VV[Sta]A[Sta]-OH) | 100% | 108% | not inhibited | not inhibited |  |
| leupeptine [Leupepsin] | 91% | 82% | not inhibited | not inhibited |  |
| papain (protein, UniProt P00784 134-345, looked up) Papain: IPEYVDWRQKGAVTPVKNQGSCGSCWAFSAVVTIEGIIKIRTGNLNEYSEQELLDCDRRSYGCNGGYPWSALQLVAQYGIHYRNTYPYEGVQRYCRSREKGPYAAKTDGVRQVQPYNEGALLYSIANQPVSVVLEAAGKDFQLYRGGIFVGPCGNKVDHAVAAVGYGPNYILIKNSWGTGWGENGYIRIKRGTGNSYGVCGLYTSSFYPVKN |  |  |  |  | time to overtenderize the meat ([1]; 4° C.): 24 h; time to overtenderize the meat ([1]; room temperature): ≤ 1 h; tenderizing effect (in words) [2]: overtenderizing effect; time in which the tenderizing effect is exerted [2]: several; tenderizing effect (in words) [3]: overtenderizing effect; time in which the tenderizing effect is exerted [3]: several; time to overtenderizing effect ([3]; used in a large amount): several minutes to scores of minutes; time to overtenderizing effect ([3]; used in a reduced amount): several hours |
